Biological target: T1, Edg-1/S1P1 receptor (Homo sapiens, UniProt P21453)
T1 construct: expressed in transfected cells; host or cells: human osteogenic sarcoma U2OS cells: Edg-1 Transfluor U2OS WT Clone #37 (assay I), Edg-1 Transfluor U2OS Clone #3 (assay II)
Assay: In vitro cell based receptor activation assay - Transfluor assay (assay I or II; beta-arrestin GFP relocalization after S1P stimulation)
Conditions: at 3.30 μM (run with this as top concentration)
From the text: The following assays can be used to measure the effects of the compounds of the present invention as S1P1/Edg1 inhibitors.
I. In Vitro Cell Based Receptor Activation Assay-Transfluor Assay
(§1) This cell-based assay was designed to assess the ability of small molecule antagonists to inhibit activation of the GPCR S1P1 in the presence of its cognate ligand S1P. The assay used technology initially developed by Norak Biosciences (Xsira Pharmaceutical) and presently owned by Molecular Devices. A human osteogenic sarcoma (U2OS) cell line overexpressing the Edg-1/S1P1) receptor as well as a beta-arrestin/green fluorescent protein (GFP) construct hereafter termed Edg-1 Transfluor U2OS WT Clone #37 was employed.
Using a high content screening approach (Cellomics Arrayscan), receptor activity was measured by assessment of the relocalization of beta-arrestin GFP in response to stimulation of Edg-1 by SIP. Specifically, Edg-1 Transfluor U2OS WT Clone #37 cells were plated at a density of 6250 cells in 40 μL medium per well in 384 well plastic bottomed microtiter plates (BD Falcon) and incubated overnight at 37° C./5% CO2. Prior to screening, compounds were dissolved in 100% dimethyl sulfoxide (DMSO) to a final stock concentration of 10 mM. Compounds were then serially diluted at 30× final concentration in Edg-1 Transfluor cell growth medium containing […] using the Tecan Genesis instrument. These 30× plates were then diluted to 6× final concentration with Edg-1 Transfluor growth medium just prior to dosing. Cells were then dosed with 10 μL per well of 6× compound dilutions or 6% DMSO and pre-incubated for 15 minutes at room temperature. Cell plates were dosed with 10 μL per well 6× S1P Edg-1 Transfluor growth medium, then incubated for 45 minutes at 37° C./5% CO2. Final concentration in the well of DMSO was 1%, compound was IX (3-fold, 9 point IC50 dilutions starting at 100 μM final concentration), and either 375 nM or […] SIP ligand. Cell plates were then fixed by adding 50 μL per well of 5% formaldehyde in 1× Dulbecco's phosphate buffered saline (DPBS) directly and incubating for 30 minutes at room temperature in darkness. Fixative was removed and replaced with 50 μL per well of 1×DPBS, after which cells were stained with 10 μg/mL final concentration of Hoechst 33342 (Molecular Probes) for 15 minutes at room temperature in darkness. Stain was then removed from the plates and replaced with 50 μL per well of 1×DPBS using the BioTek ExL405 plate washer. Plates were then sealed and analysed on the Cellomics Arrayscan using the GPCR signalling algorithm. EC50 values were then calculated using IDBS ActivityBase software.
II. In Vitro Cell Based Receptor Activation Assay-Transfluor Assay
as §1, with “Devices (MDS Analytical Technologies).” for “Devices.”, “U2OS” for “U2OS WT”, “#3” for “#37”
Using a high content screening approach (Molecular Devices Image Express), receptor activity was measured by assessment of the relocalization of beta-aiTestin GFP in response to stimulation of Edg-1 by S1P. Specifically, Edg-1 Transfluor U2OS Clone #3 cells were plated at a density of 6250 cells in 44 μL medium per well in 384 well plastic bottomed microtiter plates (BD Falcon) and incubated overnight at 37° C./5% CO2. Prior to screening, compounds were dissolved in 100% dimethyl sulfoxide (DMSO) to a final stock concentration of 10 mM. Compounds were then serially diluted at 10× final concentration in Edg-1 Transfluor cell growth medium containing 6% DMSO using the BioMek instrument. […]

T1 sequence (P21453 whole entry): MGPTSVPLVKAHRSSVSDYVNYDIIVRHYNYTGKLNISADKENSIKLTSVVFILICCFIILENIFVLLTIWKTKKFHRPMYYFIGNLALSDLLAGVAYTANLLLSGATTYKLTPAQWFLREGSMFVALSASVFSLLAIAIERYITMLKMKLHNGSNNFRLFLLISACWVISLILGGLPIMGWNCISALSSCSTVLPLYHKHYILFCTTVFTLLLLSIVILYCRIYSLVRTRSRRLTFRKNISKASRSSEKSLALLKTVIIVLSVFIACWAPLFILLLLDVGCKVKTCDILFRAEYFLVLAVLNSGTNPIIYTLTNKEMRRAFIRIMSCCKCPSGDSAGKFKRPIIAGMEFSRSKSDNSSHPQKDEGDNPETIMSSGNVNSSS

Row | Molecule | inhibition at 3.3 µM [%]
1 | CCCn1c(C(C)NS(=O)(=O)c2ccc(Cl)cc2)nc2ccccc21 (centres unmarked) [Example 17, 4-Chloro-N-[1-(1-propyl-1H-benzimidazol-2-yl)ethyl]-benzenesulfonamide] | 92.8

Same assay, conditions: at 3.50 μM (titrated from top concentration 10 μM)

Row | Molecule | inhibition at 3.5 µM [%]
2 | CCn1c([C@@H](C)NS(=O)(=O)c2ccc(Cl)cc2)nc2ccc(CO)cc21 (stereo in doubt) [Example 68, 4-Chloro-N-{1-[1-ethyl-6-(hydroxymethyl)-1H-benzimidazol-2-yl]ethyl}benzenesulfonamide] | 94.4
3 | CCn1c([C@@H](C)NS(=O)(=O)c2ccc(C#N)cc2)nc2cnc(C3CC3)cc21 (stereo in doubt) [Example 183, 4-Cyano-N-[1-(6-cyclopropyl-1-ethyl-1H-imidazo[4,5-c]pyridin-2-yl)-ethyl]-benzenesulfonamide] | 83.4
4 | CCC(NS(=O)(=O)c1ccc(Cl)cc1)c1nc2ccccc2n1CC (centres unmarked) [Example 2, 4-Chloro-N-[1-(1-ethyl-1H-benzoimidazol-2-yl)propyl]-benzenesulfonamide] | 94
5 | CCn1c([C@@H](C)NS(=O)(=O)c2ccc(Cl)cc2)nc2ccc(C(F)(F)F)cc21 [Example 9, 4-Chloro-N-{(1R)-1-[1-ethyl-6-(trifluoromethyl)-1H-benzimidazol-2-yl]ethyl} benzene-sulfonamide] | 84.8
6 | CCn1c(C(C)NS(=O)(=O)c2ccc(Cl)cc2)nc2ncccc21 (centres unmarked) [Example 12, 4-Chloro-N-[1-(1-ethyl-1H-imidazo[4,5-b]pyridin-2-yl)-ethyl]-benzenesulfonamide] | 93.3
7 | CCn1c(C(C)(C)NS(=O)(=O)c2ccc(Cl)cc2)nc2ccccc21 [Example 16, 4-Chloro-N-[1-(1-ethyl-1H-benzoimidazol-2-yl)-1-methyl-ethyl]-benzenesulfonamide] | 96.2

Same assay, conditions: at 3.70 μM (titrated from top concentration 100 μM)

Row | Molecule | % inhibition | inhibition at 3.7 µM [%]
8 | 4-Chloro-N-{1-[1-ethyl-6-(methylsulfonyl)-1H-benzimidazol-2-yl]ethyl}benzenesulfonamide [Example 80] | [drawing 92] 4-Chloro-N-{1-[1-ethyl-6- (methylsulfonyl)-1H- benzimidazol-2-yl]ethyl}benzenesulfonamide (22.57% inhibition at 3.70 μM) | –
9 | CCOC(=O)c1ccc2nc([C@@H](C)NS(=O)(=O)c3ccc(Cl)cc3)n(CC)c2c1 (stereo in doubt) [Example 67, Ethyl 2-(1-{[(4-chlorophenyl)sulfonyl]amino}-ethyl)-1-ethyl-1H-benzimidazole-6-carboxylate] | – | 91.3
10 | CCn1c([C@@H](C)NS(=O)(=O)c2ccc(Cl)cc2)nc2ccc(C(=O)N(C)C)cc21 (stereo in doubt) [Example 72, 2-(1-{[(4-Chlorophenyl)sulfonyl]amino}-ethyl)-1-ethyl-N,N-dimethyl-1H-benzimidazole-6-carboxamide] | – | 21.7
11 | CCn1c([C@@H](C)NS(=O)(=O)c2ccc(Cl)cc2)nc2ccc(C(=O)N3CCOCC3)cc21 (stereo in doubt) [Example 73, 4-Chloro-N-{1-[1-ethyl-6-(morpholin-4-ylcarbonyl)-1H-benzimidazol-2-yl]ethyl}benzenesulfonamide] | – | 8.88
12 | CCn1c([C@@H](C)NS(=O)(=O)c2ccc(Cl)cc2)nc2ccc(SC)cc21 (stereo in doubt) [Example 79, 4-Chloro-N-{1-[1-ethyl-6-(methylthio)-1H-benzimidazol-2-yl]ethyl}benzenesulfonamide] | – | 94.9
13 | CCn1c(C(NS(=O)(=O)c2ccc(Cl)cc2)C(C)C)nc2ccccc21 (centres unmarked) [Example 3, 4-Chloro-N-[1-(1-ethyl-1H-benzimidazol-2-yl)-2-methyl-propyl]benzenesulfonamide] | – | 59
14 | CCn1c(C(CC(C)C)NS(=O)(=O)c2ccc(Cl)cc2)nc2ccccc21 (centres unmarked) [Example 4, 4-Chloro-N-[1-(1-ethyl-1H-benzimidazol-2-yl)-3-methyl-butyl}benzenesulfonamide] | – | 66.4
15 | CCn1c(C(Cc2ccccc2)NS(=O)(=O)c2ccc(Cl)cc2)nc2ccccc21 (centres unmarked) [Example 5, 4-Chloro-N-[1-(1-ethyl-1H-benzimidazol-2-yl)-2-phenyl-ethyl]benzenesulfonamide] | – | 73.2
16 | CCn1c(C(Cc2ccc(F)cc2)NS(=O)(=O)c2ccc(Cl)cc2)nc2ccccc21 (centres unmarked) [Example 6] | – | 77.7
17 | CCn1c(C(Cc2cccnc2)NS(=O)(=O)c2ccc(Cl)cc2)nc2ccccc21 (centres unmarked) [Example 7, 4-Chloro-N-[1-(1-ethyl-1H-benzimidazol-2-yl)-2-pyridin-3-yl-ethyl]benzene-sulfonamide] | – | 79.7
18 | CC(NS(=O)(=O)c1ccc(Cl)cc1)c1nc2ccccc2n1C (centres unmarked) [Example 8, 4-Chloro-N-[1-(1-methyl-1H-benzimidazol-2-yl)ethyl]-benzenesulfonamide] | – | 91.2
19 | CCn1c(C(C)NS(=O)(=O)c2ccc(Cl)cc2)nc2ccc(Cl)cc21 (centres unmarked) [Example 10, 4-Chloro-N-[1-(6-chloro-1-ethyl-1H-benzimidazol-2-yl)ethyl]benzenesulfonamide] | – | 89.9
20 | CCn1c([C@@H](C)NS(=O)(=O)c2ccc(Cl)cc2)nc2cccc(OC)c21 [Example 11, 4-Chloro-N-[(1R)-1-(1-ethyl-7-methoxy-1H-benzimidazol-2-yl)ethyl]benzene-sulfonamide] | – | 82
21 | CCn1c(C(C)NS(=O)(=O)c2ccc(Cl)cc2)nc2cnccc21 (centres unmarked) [Example 13, 4-Chloro-N-[1-(1-ethyl-1H-imidazo[4,5-c]pyridin-2-yl)ethyl]benzene sulfonamide] | – | 72.8
22 | CCn1c(C(C)NS(=O)(=O)c2ccc(Cl)cc2)nc2ccncc21 (centres unmarked) [Example 14, 4-Chloro-N-[1-(3-ethyl-3H-imidazo[4,5-c]pyridin-2-yl)ethyl] benzene sulfonamide] | – | 72.8
23 | CCn1c(C(C)NS(=O)(=O)c2ccc(Cl)cc2)nc2cccnc21 (centres unmarked) [Example 15, 4-Chloro-N-[1-(3-ethyl-3H-imidazo[4,5-b]pyridin-2-yl)ethyl]benzenesulfonamide] | – | 61.5
24 | CC(NS(=O)(=O)c1ccc(Cl)cc1)c1nc2ccccc2n1CC1CC1 (centres unmarked) [Example 18, 4-Chloro-N-{1-[1-(cyclopropylmethyl)-1H-benzimidazol-2-yl]ethyl}-benzenesulfonamide] | – | 100
25 | CC(C)Cn1c(C(C)NS(=O)(=O)c2ccc(Cl)cc2)nc2ccccc21 (centres unmarked) [Example 19, 4-Chloro-N-[1-(1-isobutyl-1H-benzimidazol-2-yl)ethyl]-benzenesulfonamide] | – | 16.4
26 | CCn1c([C@@H](C)NS(=O)(=O)c2ccc(Cl)cc2)nc2cc(F)c(F)cc21 [Example 20, 4-Chloro-N-[(1R)-1-(1-ethyl-5,6-difluoro-1H-benzimidazol-2-yl)ethyl]benzenesulfonamide] | – | 79.5
27 | CC(NS(=O)(=O)c1ccc(Cl)cc1)c1nc2ccccc2n1C1CC1 (centres unmarked) [Example 21, 4-Chloro-N-[1-(1-cyclopropyl-1H-benzimidazol-2-yl)ethyl]benzenesulfonamide] | – | 39
28 | CCn1c([C@@H](C)NS(=O)(=O)c2ccc(Cl)cc2)nc2cc(Cl)c(Cl)cc21 [Example 22, (R)-4-Chloro-N-[1-(5,6-dichloro-1-ethyl-1H-benzoimidazol-2-yl)ethyl]-benzenesulfonamide] | – | 63.5

Same assay, conditions: one or the other of the two Transfluor assays; Edg-1 Transfluor U2OS cells, S1P ligand

Row | Molecule | EC50 [µM]
29 | CCn1c([C@H](C)NS(=O)(=O)c2ccc(Cl)cc2)nc2cnccc21 [4-chloro-N-[(1S)-1-(1-ethyl-1H-imidazo[4,5-c]pyridin-2-yl)ethyl]benzenesulfonamide] | > 33
30 | CC(NS(=O)(=O)c1ccc(Cl)cc1)c1nc2ccccc2n1CC1CC1 (centres unmarked) [Example 18, 4-Chloro-N-{1-[1-(cyclopropylmethyl)-1H-benzimidazol-2-yl]ethyl}-benzenesulfonamide] | 0.896
31 | CC(C)Cn1c(C(C)NS(=O)(=O)c2ccc(Cl)cc2)nc2ccccc21 (centres unmarked) [Example 19, 4-Chloro-N-[1-(1-isobutyl-1H-benzimidazol-2-yl)ethyl]-benzenesulfonamide] | 10.3
32 | CC(NS(=O)(=O)c1ccc(Cl)cc1)c1nc2ccccc2n1C1CC1 (centres unmarked) [Example 21, 4-Chloro-N-[1-(1-cyclopropyl-1H-benzimidazol-2-yl)ethyl]benzenesulfonamide] | 5.15

Reference: patent US20100029643A1 (ASTRAZENECA AB, priority 2006, published 2010)
